In PubChem BioAssay AID248 (DTP/NCI, 2004):
“And” between values parts separate entries of the source, which are not always exact repeats. Equal entries are not always repeated. Inconclusive results and toxic doses are left out. Cut-off read from the data, not from the text of the source: active = T/C of 150% or more; inactive = T/C below 125%.

Test system: L1210 leukemia ip in BDF1 mice, survival T/C
Assay: NCI In Vivo Anticancer Drug Screen. Data for tumor model L1210 Leukemia (intraperitoneal) in B6D2F1 (BDF1) mice
Settings: endpoint: mean survival time, higher = longer survival
Method in brief: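 Transplantable tumor model; survival measured in treated vs vehicle control mice. Value = treated/control.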

Measured: T/C

O=C(Nc1ccc(C2=NCCN2)cc1)c1ccc(C(=O)Nc2ccc(C3=NCCN3)cc2)c(Cl)c1
active: dose: 8.0 mg/kg/injection, schedule: Q01DX Z (ip), vehicle: saline 188 % of control | dose: 11.0 mg/kg/injection, schedule: Q02DX010 (ip), vehicle: carboxymethylcellulose (CMC) 181 % of control | dose: 15.0 mg/kg/injection, schedule: Q01DX010 (ip), vehicle: other 166 % of control | dose: 15.0 mg/kg/injection, schedule: Q01DX015 (ip), vehicle: carboxymethylcellulose (CMC) 169 % of control and 171 % of control | dose: 16.0 mg/kg/injection, schedule: Q01DX010 (ip), vehicle: water 156 % of control | dose: 16.0 mg/kg/injection, schedule: Q01DX Z (ip), vehicle: saline 173 % of control | dose: 22.5 mg/kg/injection, schedule: Q01DX010 (ip), vehicle: other 178 % of control | dose: 24.0 mg/kg/injection, schedule: Q02DX010 (ip), vehicle: carboxymethylcellulose (CMC) 168 % of control | dose: 26.0 mg/kg/injection, schedule: Q02DX008 (ip), vehicle: carboxymethylcellulose (CMC) 168 % of control | dose: 26.0 mg/kg/injection, schedule: Q02DX010 (ip), vehicle: carboxymethylcellulose (CMC) 169 % of control and 182 % of control | dose: 32.0 mg/kg/injection, schedule: Q01DX Z (sc), vehicle: carboxymethylcellulose (CMC) 185 % of control | dose: 33.7 mg/kg/injection, schedule: Q01DX010 (ip), vehicle: other 167 % of control | dose: 39.0 mg/kg/injection, schedule: Q02DX008 (ip), vehicle: carboxymethylcellulose (CMC) 184 % of control and 192 % of control | dose: 39.0 mg/kg/injection, schedule: Q02DX010 (ip), vehicle: other 167 % of control | dose: 48.0 mg/kg/injection, schedule: Q01DX010 (ip), vehicle: water 157 % of control | dose: 50.0 mg/kg/injection, schedule: Q02DX004 (im), vehicle: olive oil, sesame oil, peanut oil 156 % of control | dose: 53.6 mg/kg/injection, schedule: Q## X032 (ip), vehicle: carboxymethylcellulose (CMC) 162 % of control | dose: 54.0 mg/kg/injection, schedule: Q02DX010 (ip), vehicle: carboxymethylcellulose (CMC) 181 % of control | dose: 54.0 mg/kg/injection, schedule: Q02DX010 (ip), vehicle: other 157 % of control | dose: 54.0 mg/kg/injection, schedule: Q## X032 (ip), vehicle: carboxymethylcellulose (CMC) 153 % of control | dose: 58.5 mg/kg/injection, schedule: Q02DX008 (ip), vehicle: carboxymethylcellulose (CMC) 166 % of control | dose: 58.7 mg/kg/injection, schedule: Q02DX010 (ip), vehicle: carboxymethylcellulose (CMC) 162 % of control | dose: 67.0 mg/kg/injection, schedule: Q## X004 (ip), vehicle: carboxymethylcellulose (CMC) 157 % of control and 161 % of control | dose: 80.0 mg/kg/injection, schedule: Q## X032 (ip), vehicle: carboxymethylcellulose (CMC) 163 % of control and 178 % of control and 188 % of control | dose: 96.0 mg/kg/injection, schedule: Q01DX001 (ip), vehicle: carboxymethylcellulose (CMC) 156 % of control | dose: 96.0 mg/kg/injection, schedule: Q01DX001 (ip), vehicle: other 162 % of control | dose: 120.0 mg/kg/injection, schedule: Q## X032 (ip), vehicle: carboxymethylcellulose (CMC) 180 % of control and 181 % of control
inactive: dose: 1.8 mg/kg/injection, schedule: Q01DX009 (ip), vehicle: Klucel (hydroxypropylcellulose) (HPC) 100 % of control and 105 % of control | dose: 2.0 mg/kg/injection, schedule: Q01DX010 (ip), vehicle: other 94 % of control and 101 % of control | dose: 2.0 mg/kg/injection, schedule: Q01DX Z (ip), vehicle: saline 103 % of control | dose: 2.0 mg/kg/injection, schedule: Q01DX Z (sc), vehicle: carboxymethylcellulose (CMC) 110 % of control | dose: 2.5 mg/kg/injection, schedule: Q04DX002 (ip), vehicle: Klucel (hydroxypropylcellulose) (HPC) 95 % of control | dose: 3.0 mg/kg/injection, schedule: Q03DX Z (ip), vehicle: saline 114 % of control | dose: 3.5 mg/kg/injection, schedule: Q01DX009 (ip), vehicle: Klucel (hydroxypropylcellulose) (HPC) 107 % of control and 115 % of control | dose: 4.0 mg/kg/injection, schedule: Q01DX010 (ip), vehicle: other 107 % of control and 117 % of control | dose: 4.0 mg/kg/injection, schedule: Q01DX Z (sc), vehicle: carboxymethylcellulose (CMC) 110 % of control | dose: 5.0 mg/kg/injection, schedule: Q04DX002 (ip), vehicle: Klucel (hydroxypropylcellulose) (HPC) 95 % of control | dose: 6.0 mg/kg/injection, schedule: Q03DX Z (ip), vehicle: saline 118 % of control | dose: 6.7 mg/kg/injection, schedule: Q01DX010 (ip), vehicle: other 124 % of control | dose: 6.7 mg/kg/injection, schedule: Q01DX015 (ip), vehicle: carboxymethylcellulose (CMC) 116 % of control | dose: 7.8 mg/kg/injection, schedule: Q02DX010 (ip), vehicle: carboxymethylcellulose (CMC) 117 % of control | dose: 10.0 mg/kg/injection, schedule: Q01DX015 (ip), vehicle: carboxymethylcellulose (CMC) 119 % of control | dose: 12.5 mg/kg/injection, schedule: Q02DX004 (im), vehicle: olive oil, sesame oil, peanut oil 116 % of control and 119 % of control | dose: 13.0 mg/kg/injection, schedule: Q## X004 (ip), vehicle: carboxymethylcellulose (CMC) 105 % of control and 106 % of control | dose: 17.4 mg/kg/injection, schedule: Q02DX008 (ip), vehicle: carboxymethylcellulose (CMC) 121 % of control | dose: 20.0 mg/kg/injection, schedule: Q01DX001 (ip), vehicle: saline 114 % of control | dose: 20.0 mg/kg/injection, schedule: Q## X004 (ip), vehicle: carboxymethylcellulose (CMC) 103 % of control and 114 % of control | dose: 25.0 mg/kg/injection, schedule: Q01DX001 (im), vehicle: steriod suspending solution 103 % of control | dose: 28.0 mg/kg/injection, schedule: Q07DX Z (ip), vehicle: saline 121 % of control | dose: 29.0 mg/kg/injection, schedule: Q01DX001 (ip), vehicle: carboxymethylcellulose (CMC) 122 % of control | dose: 29.0 mg/kg/injection, schedule: Q01DX001 (ip), vehicle: other 109 % of control | dose: 30.0 mg/kg/injection, schedule: Q01DX001 (ip), vehicle: carboxymethylcellulose (CMC) 116 % of control and 118 % of control | dose: 30.0 mg/kg/injection, schedule: Q## X004 (ip), vehicle: carboxymethylcellulose (CMC) 113 % of control and 115 % of control | dose: 39.0 mg/kg/injection, schedule: Q01DX015 (ip), vehicle: carboxymethylcellulose (CMC) 119 % of control | dose: 40.0 mg/kg/injection, schedule: Q01DX001 (ip), vehicle: saline 106 % of control | dose: 42.0 mg/kg/injection, schedule: Q01DX001 (ip), vehicle: carboxymethylcellulose (CMC) 122 % of control | dose: 42.0 mg/kg/injection, schedule: Q01DX001 (ip), vehicle: other 117 % of control | dose: 44.0 mg/kg/injection, schedule: Q01DX001 (ip), vehicle: carboxymethylcellulose (CMC) 113 % of control | dose: 48.0 mg/kg/injection, schedule: Q01DX001 (ip), vehicle: carboxymethylcellulose (CMC) 113 % of control | dose: 48.4 mg/kg/injection, schedule: Q01DX001 (ip), vehicle: carboxymethylcellulose (CMC) 104 % of control | dose: 50.0 mg/kg/injection, schedule: Q01DX010 (sc), vehicle: olive oil, sesame oil, peanut oil 123 % of control | dose: 50.0 mg/kg/injection, schedule: Q01DX015 (ip), vehicle: carboxymethylcellulose (CMC) 100 % of control and 124 % of control | dose: 56.0 mg/kg/injection, schedule: Q01DX009 (ip), vehicle: Klucel (hydroxypropylcellulose) (HPC) 93 % of control | dose: 56.0 mg/kg/injection, schedule: Q07DX Z (ip), vehicle: saline 123 % of control | dose: 62.5 mg/kg/injection, schedule: Q01DX010 (oral), vehicle: other 113 % of control | dose: 74.0 mg/kg/injection, schedule: Q01DX001 (ip), vehicle: carboxymethylcellulose (CMC) 120 % of control | dose: 80.0 mg/kg/injection, schedule: Q01DX001 (ip), vehicle: saline 119 % of control | dose: 81.0 mg/kg/injection, schedule: Q02DX010 (ip), vehicle: carboxymethylcellulose (CMC) 106 % of control | dose: 100.0 mg/kg/injection, schedule: Q01DX010 (sc), vehicle: olive oil, sesame oil, peanut oil 93 % of control | dose: 112.0 mg/kg/injection, schedule: Q07DX Z (ip), vehicle: saline 121 % of control | dose: 125.0 mg/kg/injection, schedule: Q01DX010 (oral), vehicle: other 107 % of control | dose: 180.0 mg/kg/injection, schedule: Q## X032 (ip), vehicle: carboxymethylcellulose (CMC) 94 % of control | dose: 250.0 mg/kg/injection, schedule: Q01DX010 (oral), vehicle: other 111 % of control
